US8198317B2, “Methylenedioxy phenolic compounds and their use to treat disease” (The Ohio State University Research Foundation, priority 2008, dated 2012)

Legend:
[1] = tested on: Human Umbilical Vein Endothelial Cells (HUVECs); test: MTT cell toxicity assay; assay type: cell-based; conditions: HUVEC; for cells displaying toxicity: 24 hours
Protocol: (§1) Cell Culture: All experiments were performed with cultured Human Umbilical Vein Endothelial Cells (HUVECs—Gibco, Invitrogen) and grown to confluence at 37° C. in a 5% CO2 humidified incubator, on tissue culture flasks previously coated with 1% gelatin in supplemented culture medium (M199 with 10% heat inactivated fetal calf serum, 100 U/ml penicillin, 100 μg/ml streptomycin, 2 mM glutamine, 10 mM HEPES, pH 7.4, heparin 12 I.U./ml, 1% retinal derived growth factor, Sigma). Following trypsin treatment, the cells were detached from the flasks and final mono-layers were prepared by seeding HUVECs on gelatin-precoated culture plates and then incubated for 24-48 h to ensure confluence. Cells up to the fourth passage were used for all experiments. Recombinant human TNF-α was purchased from R&D Systems (Minneapolis, Minn.).
Cell Toxicity Assays: Cellular toxicity was assessed by MTT [3-(4,5-dimethylthiazol-2-yl)-2,5-diphenyltetrazolium bromide] assay, a commercially available assay for assessment of cellular viability. INV-75 was added to HUVECs for 24 hours, and toxicity assays were performed at the end of this period. The MTT assay relies on the cellular reduction of positively charged tetrazolium salts to their intensely colored formazan product by mitochondrial dehydrogenases. Formazan production is decreased in the presence of impaired mitochondrial redox function and enhanced free radical production and may, therefore, be used as an index of cell viability responses to experimental interventions.
In short, after removing microtiter plates from the incubator, fresh medium containing a fixed volume of reconstituted MTT [3-(4,5-dimethylthiazol-2-yl)-2,5-diphenyltetrazlium bromide; final concentration: 0.5 mg/ml] was added to the wells; the plates were kept at 37° C. in a 5% CO2 environment for 2 h, and then the MTT solubilization solution provided by the manufacturer was added. The formazan product formed by the conversion of positively charged tetrazolium salts to the reduced state has low aqueous solubility and is present as purple crystals. Dissolving the formazan with a solubilization buffer (provided in kit) permits the convenient quantification of its formation. Optical density at OD 570 nm is then measured for each well on an absorbance plate reader. The within- and between-assay variability was 3 and 5%, respectively. Various concentrations of INV-75 was tested in cell based assays using the MTT assay, as described above. The concentrations tested ranged from 1 mM to 10 nM and the cells were exposed for over 24 hours in duration (FIG. 2).

ICAM-1 = test: ELISA of ICAM-1 release from TNF-α stimulated HUVEC; assay type: cell-based, human; conditions: HUVEC pretreated 24 hours, then 2 ng/mL TNF-α for 6 hours
Protocol: as §1
(§2) Enzyme-Linked Immunosorbent Assay (ELISA): To measure the expression of cell surface adhesion molecules, ELISA technique was utilized (R and D Systems, Minneapolis, Minn.). […]
(§3) Enzyme-Linked Immunosorbent Assay (ELISA) and results: To measure the expression of cell surface adhesion molecules, ELISA technique was utilized. […] The expression of VCAM-1 and ICAM-1 were evaluated after TNF-α stimulation for 6 hours.

VCAM-1 = test: ELISA of VCAM-1 release from TNF-α stimulated HUVEC; assay type: cell-based, human; conditions: HUVEC pretreated 24 hours, then 2 ng/mL TNF-α for 6 hours
Protocol: as §1, §2, §3

[2] = tested on: New Zealand White rabbits; test: Plasma lipid profile in NZW rabbits; assay type: in vivo, rabbit; conditions: end of treatment
Protocol: Animal Model: 15 male New Zealand White rabbits (Charles River, Mass.) were fed with high fat diet (HFD) (Harlan Teklad rabbit diet with 0.5% cholesterol, TD 87251). After 4 weeks of high fat diet, rabbits were randomized into three different treatment groups, normal control (n=5), lipoic acid (100 mg/kg/day) (n=5), INV 70-65 (100 mg/kg/day) (n=5). These drugs were administered to the animals via their chow by mixing the drugs with the high fat diet. A fixed amount of chow and drugs admixed in the chow were fed to all animals every day after carefully calculating food intake in each rabbit. Drugs were dissolved in 100% ethanol and sprayed onto the diet and kept under vacuum to let ethanol evaporate overnight. Two (2) weeks after drug or control admixed HFD, all rabbits underwent aortic balloon denudation surgeries followed by 12 weeks of continued administration of drug or controls admixed with HFD. FIG. 29 provides an outline of the experimental design.
A lipid profile (Cholesterol, Triglycerides, direct HDL, LDL and VLDL) was performed after a total of 12 weeks of treatment with the drugs. One (1) ml of blood from the ear lobe vein was placed into tubes containing K EDTA at the beginning of the high cholesterol diet and again at the time of sacrifice. All values were expressed as mean±SD. The bar graph of each group both at the baseline and the end point measurement is presented. The statistical analysis was done with one way ANOVA.

Cardiovascular Patient = test: Treatment of a patient with acute non-ST elevation myocardial infarction (Examples 11-12); assay type: in vivo, human; conditions: 1.0 to 100 mg/kg in the catheterization laboratory
Protocol: (§4) A person presents with uncomfortable pressure, squeezing and pain in the center of their chest as well as in shoulders, arms, neck, jaw and back for over 4 hours. They also complain of shortness of breath. […] They are given aspirin, clopidogrel, nitrates and IV heparin and taken to the catheterization laboratory. After being evaluated with an angiography, they are diagnosed as suffering from a […] blockage in the left anterior descending coronary artery. The patient is administered a composition comprising an effective amount of 3,4-Methylenedioxy 6-nitro phenyl lipoate (INV-7465) (1.0 to 100 mg/kg) in the catheterization laboratory. Patient reports improvement in the chest pain, shortness of breath. They are again evaluated with an angiography to measure reduced plaque in their arteries.
as §4, with “The patient is administered a composition comprising an effective amount of 3,4-Methylenedioxy 6-nitro phenyl lipoate (INV-7465) (1.0 to 100 mg/kg) in the catheterization laboratory. Patient reports improvement in the chest pain, shortness of breath.” left out

Row | SMILES | cells displaying toxicity ([1]; 10 nM) | cells displaying toxicity ([1]; 100 nM) | cells displaying toxicity ([1]; 1 μM) | cells displaying toxicity ([1]; 10 μM) | cells displaying toxicity ([1]; 1 mM) | release of ICAM-1 (ICAM-1) | release of VCAM-1 (VCAM-1) | LDL level compared to normal control [2] | TC level compared to normal control [2] | chest pain, shortness of breath (Cardiovascular Patient) | cell toxicity results compared with those of INV-75 ([1]; dose range of 10 nM to 100 μM) | HDL levels [2] | VLDL levels compared to controls [2] | triglyceride (TG) levels compared to controls [2]
1 | CC(=O)Oc1cc2c(cc1[N+](=O)[O-])OCO2 [INV-75, 3,4-methylenedioxy-6-nitrophenyl acetate] | 2% | 4% | 8% | 7% | 74% | marked reduction | marked reduction | moderate decreases | moderate decreases | improvement | – | – | – | –
2 | O=C(CCCCC1CCSS1)Oc1ccc2c(c1)OCO2 (stereo not drawn) [INV-7065, 3,4-Methylenedioxy phenyl lipoate] | – | – | – | – | – | – | – | lower | – | – | identical | insignificant change | slight decrease | significantly decreased
3 | O=C(CCCCC1CCSS1)Oc1cc2c(cc1[N+](=O)[O-])OCO2 (stereo not drawn) [INV-7465, 3,4-Methylenedioxy 6-nitro phenyl lipoate] | – | – | – | – | – | marked reduction | marked reduction | – | – | improvement | – | – | – | –
